Reference: a melting point compilation (Tetko et al.; mined from patent text by program, amines drawn as free bases though some values may be those of a salt)

With CCOC(=O)c1cn(CC)nc1OCc1ccc(OCc2nc(-c3ccco3)oc2C)c(OC)c1 the melting point was 114 to 115 °C.
CN(CCCC(C(N)=O)(c1ccccc1)c1ccccc1)CCc1ccccn1 showed a melting point of 134 to 136 °C.
CCCc1c(OCc2cccc(OCc3ccc4ccccc4n3)c2)ccc2c(=O)cc(C(=O)O)oc12 showed a melting point of 218 to 222 °C.
Compound O=C(C(=O)c1cccc(C#Cc2ccccc2)c1)c1cccc(C#Cc2ccccc2)c1 has a melting point of 144 to 145 °C.
In the case of COc1cc2c(cc1O)CCN(C(=O)c1ccccc1OC)C2=O, the melting point was 199 to 200 °C.
Compound CCOC(=O)c1cccc(Nc2nc3ccccc3o2)c1 has a melting point of 168 to 170 °C.
With CC1(C2Cc3ccccc3O2)CCCCC1 (stereo unspecified) the melting point was 60 to 63 °C.
In the case of Cc1ccc(NC#N)c(-c2ccccc2)c1, the melting point was 80 °C.
In the case of Cc1nc2cccc(S(=O)(=O)n3c(COC(C)(C)C(=O)O)cc4cc(C(F)(F)F)ccc43)c2s1, the melting point was 98 to 100 °C.
CCn1cc(C(=O)O)c(=O)c2cc(F)c(N3CC4CCC3CN4)c(F)c21 (stereo unspecified) showed a melting point of 255 to 257 °C.
For COC(c1ccccc1)n1cnc2c(-c3cccs3)nc(Cl)nc21 (stereo unspecified), the melting point was 183 to 185 °C.
In the case of O=C1C(=Cc2ccc(Cl)cc2)CC23OC2C=CC=C13 (stereo unspecified), the melting point was 162 to 164 °C.
For COC(=O)CN(C(=O)c1ccc(Cl)cc1)c1ccccc1CCC#N, the melting point was 127 to 128 °C.
O=C(O)c1ccc(Cl)c2c1OCCO2 showed a melting point of 195 °C.
In the case of CON1C=C2N=NC3=C(N2C1)N(c1ccccc1Cl)CC=C3, the melting point was 190 to 193 °C.
CC1(C)SCCN(S(=O)(=O)c2ccc(-c3ccc(Br)cc3)cc2)C1C(=O)O (stereo unspecified) gave a melting point of 178 to 180 °C.
Compound Clc1cccc(-c2nc(Cl)cc(Cl)n2)c1 has a melting point of 118 to 120 °C.
In the case of C[C@H](c1ccccc1)n1c(=O)c2c(N3CCN(C)CC3)cc(Cl)cc2n(Cc2ccccc2)c1=O, the melting point was 108 to 115 °C.
Work on CCOC(=O)c1cc2c(C)ccc3c2n1CCC3=O yielded a melting point of 103 to 104 °C.
In the case of CCOc1ccc(C(=O)CCC(=O)O)c(OCC)c1, the melting point was 139 to 141 °C.
With O=C(O)C(=O)CC(=O)c1cccn1Cc1cc(F)c(F)cc1F the melting point was 154 to 156 °C.
With Cc1ccc2c3c(ccc2n1)OCC(CN1C2CCC1CC(O)(c1ccccc1)C2)O3 (stereo unspecified) the melting point was 162 to 165 °C.
For CCCCN1C(=O)NC(CO)C1=O (stereo unspecified), the melting point was 93 °C.
CC#Cc1ccc(-c2ccc(-c3ccc(CCCCC)cc3)c(F)c2F)cc1 gave a melting point of 103 °C.
Compound CN(C(=O)CCCOc1ccc([N+](=O)[O-])c(C=O)c1)C1CCCCC1 has a melting point of 98 to 100 °C.
O=C(c1cccc(Br)c1)C(Br)C(Br)c1ccc(Br)cc1 (stereo unspecified) showed a melting point of 158 °C.
COc1ccc(C(=O)O)cc1C(=O)NCc1ccc(C(F)(F)F)cc1 showed a melting point of 236 °C.
CC1=C(CC(=O)O)c2cc(F)c(F)cc2C1=Cc1ccc(S(C)=O)cc1 (stereo unspecified) showed a melting point of 200 to 210 °C.
O=C1NC(=O)c2c(Cl)cccc21 gave a melting point of 236 to 238 °C.
Work on CC(C)(C)OC(=O)N1CCC(c2c(F)cc(N3C[C@H](CN=[N+]=[N-])OC3=O)cc2F)CC1 yielded a melting point of 125 to 127 °C.
For Cn1c(=O)[nH]c2ncccc2c1=O, the melting point was 272 to 274 °C.
For Cc1ccc(C)c(-c2ccc(S(=O)(=O)N3c4ccccc4CC3C(=O)NCCOc3ccc(CC(=O)O)cc3)cc2)c1 (stereo unspecified), the melting point was 81 to 84 °C.
CC(=O)N(C)S(=O)(=O)c1cc(-n2c(=O)cc(C(F)(F)F)n(C)c2=O)ccc1Cl gave a melting point of 193 to 195 °C.
For C=CCc1c(O)c(Cl)cc(F)c1N1C(=O)C2=C(CCCC2)C1=O, the melting point was 109 to 111 °C.
For CCOC(=O)c1cnn2c1c(OCCCN(C)C)nc1ccccc12, the melting point was 78 to 81 °C.
Compound O[C@@H](CNCCOc1ccc2oc(-c3ccon3)cc2c1)COc1ccccc1Cl has a melting point of 93 to 96 °C.
O=C1OC(c2ccccc2)N=C1CCCCNC(=O)c1ccccc1 (stereo unspecified) showed a melting point of 118 to 122 °C.
In the case of O=c1oc(-c2ccccc2)cc(O)c1SCc1ccc(OCc2ccccc2)cc1, the melting point was 185 to 186 °C.
For CC(CCCO)C1CCC2C3C(OCc4ccccc4)CC4CC(OC5CCCCO5)CCC4(C)C3CCC12C (stereo unspecified), the melting point was 52 to 55 °C.
CCCCCCN(CCCCCC)C(Nc1ccc(OC)cc1OC)=C1C(=O)COC1=O showed a melting point of 96 to 98 °C.
Work on COc1cc(Br)c2nc(-c3ccc(OC)c(F)c3)cc(Cl)c2c1 yielded a melting point of 176 to 177 °C.
For CC(C)(C)[Si](C)(C)Oc1ccc2c(c1)oc(=O)c1c3ccc(O[Si](C)(C)C(C)(C)C)cc3sc21, the melting point was 142 to 144 °C.
Cc1ccc2nc3cc(C)c(=O)c(Cl)c-3sc2c1 gave a melting point of 193 to 195 °C.
CCc1[nH]n(C2CCCC2)c2nc(-c3ccccc3-n3ccnc3)nc(=O)c1-2 gave a melting point of 192 to 194 °C.
With COc1cc(C(=O)NS(=O)(=O)c2ccccc2C)ccc1Cn1cc(CCC(=O)N(C)C)c2ccc(CCC(=O)N(C)C)cc21 the melting point was 105 to 109 °C.
Compound O=C(O)CCC(=NOCc1ccc(OCc2cn3c(-c4ccccc4)cccc3n2)cc1)c1ccccc1 has a melting point of 160 to 161 °C.
In the case of COc1ccc2c(=O)n3c(cc2c1)SCCC3, the melting point was 86 to 87 °C.
Compound CC1=C(N)C(C)C2CC(C)(CC3=CCN(c4ccc(-n5ccnc5)cc4)CC3)OC2=C1C (stereo unspecified) has a melting point of 161 to 163 °C.
Compound O=C1Nc2c(cc([N+](=O)[O-])cc2[N+](=O)[O-])C1c1ncnc2nn(C3CCCC3)cc12 (stereo unspecified) has a melting point greater than 300 °C.
With C=CCSc1nnc(Cl)c(C)c1C the melting point was 51 to 53 °C.
Compound CC(C)(C)c1cc(SCCc2n[nH]c(=S)o2)cc(C(C)(C)C)c1O has a melting point of 124 °C.
Cc1ccc(C(=S)c2cc(C(C)(C)C)c(O)c(C(C)(C)C)c2)cc1 gave a melting point of 135 to 136 °C.
Cc1cc(SC(=O)N(C)C)c(C(C)(C)C)cc1CO gave a melting point of 136 °C.
Cc1c(F)cc(C(=O)O)c(Cl)c1[N+](=O)[O-] showed a melting point of 186 to 188 °C.
O=C(O)Cc1cc(C(=O)C=Cc2ccc(F)cc2)ccc1O gave a melting point of 212 °C.
With COC(=O)Cc1noc2cc(F)ccc12 the melting point was 60 to 61 °C.
Work on COC(=O)C1=C(C)NC2=C(C(=O)CN(Cc3ccccc3)C2)C1c1ccccc1C(F)(F)F (stereo unspecified) yielded a melting point of 225 to 227 °C.
With COc1ccc(Br)c(C=O)c1OC(C)=O the melting point was 119 to 120 °C.
Compound Cc1cc(C(F)(F)F)cc(N(C(N)=O)c2c(Cl)cccc2Cl)n1 has a melting point of 165 °C.
Work on CC1(C)OC(c2ccc(S(C)(=O)=O)cc2)=C(c2cc3ccccc3o2)C1=O yielded a melting point of 140 to 141 °C.
In the case of COc1cc(Nc2c(C#N)cnc3cc(-c4ccc(C(=O)O)cc4)sc23)c(Cl)cc1Cl, the melting point was greater than 300 °C.
Compound CC(=O)Oc1cccc2c1CC(=O)N2C has a melting point of 109 to 111 °C.
CCCCc1c(C=O)ccc2c(OC)cccc12 showed a melting point of 61.5 to 62.5 °C.
CCc1nccn1Cc1ccc2c(c1)Cc1c(-c3ccsc3)n[nH]c1-2 showed a melting point of 129 to 132 °C.
For CC1=C(C(O)c2ccc3c(c2)CCN(C(N)=O)C3)C(C)(C)CCC1 (stereo unspecified), the melting point was 88.3 to 89 °C.
Nc1cc(Cl)nc(Cl)c1N showed a melting point of 186 to 188 °C.
Work on NS(=O)(=O)c1ccc(-c2cnn(-c3ccc(F)c(F)c3)c(=O)c2Oc2ccc(F)cc2)cc1 yielded a melting point of 224 to 226 °C.
In the case of CC1=Cc2cc(C(=O)O)ccc2OC1(C)C, the melting point was 169 to 171 °C.
For CN(C)C(=O)N(C)c1nnc(C(C)(C)CCl)s1, the melting point was 80 to 82 °C.
With OCCCCCCn1nc(-c2ccccc2)c(-c2ccccc2)c1-c1ccccc1 the melting point was 76 to 78 °C.
For O=C1C(c2ccccc2)=C(c2cccc(Cl)c2)C(=O)N1c1ccc(Cl)cc1, the melting point was 51 °C.
